Columns and labels:
liver = test: EGFP expression in liver tissue sections of mice administered EGFP mRNA-loaded lipid nanoparticles (confocal microscopy); format: in vivo, Balb/c mice; details: for fluorescence of EGFP in the liver tissues / gene expression in hepatocytes: Example 27, Fig. 6, EGFP mRNA-loaded lipid nanoparticles TxT/DSPC/chol/PEG-DMG=50/3/47/1.5 (mol%), 24 hours post-administration
Procedure: Subsequently, each EGFP mRNA-loaded lipid nanoparticle was administered to Balb/c mice at a dose of 0.2 mg mRNA/kg. At 23 hours and 50 minutes post-administration, fluorescently labeled lectin (DyLight-649 Lycopersicon (Tomato) Lectin) was intravenously injected via the tail vein at 40 µg/mouse to fluorescently label vascular endothelial cells. At 24 hours after administration of the lipid nanoparticles, the mice were euthanized, and their livers were collected to prepare tissue sections. For nuclear staining, the tissue sections were immersed in a nuclear staining solution (1 µg/mL Hoechst 33342 dissolved in PBS(-)), cooled on ice, and incubated for at least 30 minutes in the dark. The stained tissue sections were then observed using a confocal laser scanning microscope. Subsequently, in the same manner as Example 26, each EGFP mRNA-loaded lipid nanoparticle was administered to Balb/c mice. At 23 hours and 50 minutes post-administration, fluorescently labeled lectin was administered. At 24 hours after administration of the lipid nanoparticles, the mice were euthanized, and their livers were collected to prepare tissue sections. Each tissue section was observed using a confocal laser scanning microscope. In the figure, the upper panels show fluorescence images of EGFP, and the lower panels show fluorescence images of vascular endothelial cells (fluorescently labeled lectin).

hEPO = hEPO in the serum of mice administered hEPO mRNA-loaded lipid nanoparticles (ELISA); format: in vivo; details: Example 29, Fig. 8, 6, 24, and 48 hours after administration, N = 3
Procedure: Subsequently, each hEPO mRNA-loaded lipid nanoparticle was administered to mice, and blood samples were collected from the tail vein at 6, 24, and 48 hours after administration (N = 3). The collected blood was allowed to stand at room temperature for 90 minutes, followed by centrifugation at 25°C, 1,000 x g for 15 minutes. The supernatant was collected to obtain serum. The hEPO activity in the serum was measured using a commercially available ELISA kit (Human EPO ELISA Kit, Invitrogen). Calibration samples were prepared by serial dilution from 100 mIU/mL to obtain solutions of […], each in a volume of 450 µL. Serum samples were diluted 10- to 10,000-fold to fall within the calibration range. A volume of 100 µL of each calibration sample and serum sample was applied to the plate, followed by the addition of […] of Biotin-Conjugate and incubation at 18 to 25°C for 1 hour. The wells were washed six times, and 100 µL of Streptavidin-HRP was added to each well and incubated at 18 to 25°C for 15 minutes. After another six washes, 100 µL of TMB Substrate Solution was added to each well, and the plate was shielded from light using aluminum foil and incubated at 18 to 25°C for 10 minutes. Finally, 100 µL of Stop Solution was added, and absorbance at 450 nm was measured using a spectrofluorometer (Varioskan Lux, Thermo Fisher Scientific).

transthyretin (TTR) = test: TTR-targeted genome editing in mice, serum TTR (ELISA); format: in vivo, Balb/c mice; details: for TTR knockout activity: serum TTR one week after administration, N = 3
Procedure: Specifically, an RNA solution was first prepared to contain Cas9-mRNA (TriLink, SmoU-modified) and gRNA targeting transthyretin (TTR) at a mass ratio of 1:2 (N/P = 6.0). Using this RNA solution, in the same manner as Example 27, lipid nanoparticles encapsulating Cas9-mRNA and TTR-gRNA (SEQ ID NO: 1) and having a composition of TxT/DSPC/chol/PEG-DMG = 50/3/47/1.5 (mol%) were prepared (lipid nanoparticles for TTR-targeted genome editing). […]
Subsequently, each of the prepared lipid nanoparticles for TTR-targeted genome editing was administered via tail vein injection to female Balb/c mice (4 weeks old) at a dose of 1.5 mg Cas9 mRNA/kg. […] The collected blood was allowed to stand at room temperature for 1 hour, followed by centrifugation at 25°C, 1,000 × g for 15 minutes. The supernatant was collected to obtain serum. The TTR concentration in the serum was measured using a commercially available ELISA kit (Prealbumin ELISA Kit Mouse, Aviva Systems Biology). Calibration samples were prepared by serial dilution from 500 ng/mL to obtain solutions of 250, 125, 62.5, 31.25, and 15.63 ng/mL, each in a volume of 300 µL. Serum samples were diluted 10,000-fold. A volume of 100 µL of each calibration sample and serum sample was applied to the plate and incubated at 25°C for 30 minutes. The wells were washed four times, and 100 µL of Enzyme-Antibody Conjugate was added to each well. The plate was shielded from light using aluminum foil and incubated at 25°C for 20 minutes. After another four washes, 100 µL of TMB Substrate Solution (Aviva Systems Biology) was added to each well, and the plate was shielded from light using aluminum foil and incubated at 25°C for 10 minutes. Finally, 100 µL of Stop Solution (Aviva Systems Biology) was added, and absorbance at 450 nm was measured using a spectrofluorometer (Varioskan Lux, Thermo Fisher Scientific).
Subsequently, the lipid nanoparticles for TTR-targeted genome editing were administered to mice and serum TTR levels (µg/mL) were measured (N = 3) in the same manner as in Example 32, except that a dose of Cas9-mRNA was adjusted to 0.1, 0.3, and 1.0 mg/kg. In the figure, "NT" indicates the measurement result of serum from mice that were not administered lipid nanoparticles.

[1] = Example 32, Fig. 11, 1.5 mg Cas9 mRNA/kg tail vein

SMILES	fluorescence of EGFP in the liver tissues (liver)	gene expression in hepatocytes (liver)	hEPO concentrations in serum compared to lipid nanoparticles comprising SM-102 (hEPO)	TTR knockout activity (transthyretin (TTR); [1])	GFP expression in cell types of the liver (liver; Example 26, Fig. 5, EGFP mRNA-loaded lipid nanoparticles 50/3/47/1.5 (mol%), 0.2 mg mRNA/kg, 24 hours after administration)	TTR knockout efficiency versus dose (transthyretin (TTR); Example 33, Fig. 12, 0.1, 0.3, and 1.0 mg/kg)	TTR knockout activity (transthyretin (TTR); Example 33, Fig. 12, dose of 0.3 mg RNA/kg)
CCCCCCC(CCCC)CNC(=O)CCCC(=O)OCC(COC(=O)CCCC(=O)NCC(CCCC)CCCCCC)(COC(=O)CCCC(=O)NCC(CCCC)CCCCCC)NC(=O)CCN1CCCCC1 (stereo not drawn) [TxT-5-5A12β, 2-(((5-((2-butyloctyl)amino)-5-oxopentanoyl)oxy)methyl)-2-(3-(piperidin-1-yl)propanamido)propane-1,3-diyl bis(5-((2-butyloctyl)amino)-5-oxopentanoate)]	fluorescence of EGFP was observed	notably high levels of gene expression	clearly higher hEPO concentrations	exceeding 85%			
CCCCCCCN(CCCCCCC)C(=O)CCCC(=O)OCC(COC(=O)CCCC(=O)N(CCCCCCC)CCCCCCC)(COC(=O)CCCC(=O)N(CCCCCCC)CCCCCCC)NC(=O)CCN1CCCCC1 [TxT-5-5A14, 2-(((5-(diheptylamino)-5-oxopentanoyl)oxy)methyl)-2-(3-(piperidin-1-yl)propanamido)propane-1,3-diyl bis(5-(diheptylamino)-5-oxopentanoate)]	fluorescence of EGFP was observed	notably high levels of gene expression	clearly higher hEPO concentrations	exceeding 85%	GFP expression was observed not only in hepatocytes but also in vascular endothelial cells	dose-dependent increase in TTR knockout efficiency	no less than 60%
CCCCCCCCN(CCCCCCCC)C(=O)CCCC(=O)OCC(COC(=O)CCCC(=O)N(CCCCCCCC)CCCCCCCC)(COC(=O)CCCC(=O)N(CCCCCCCC)CCCCCCCC)NC(=O)CCN1CCCCC1 [TxT-5-5A16, 2-(((5-(dioctylamino)-5-oxopentanoyl)oxy)methyl)-2-(3-(piperidin-1-yl)propanamido)propane-1,3-diyl bis(5-(dioctylamino)-5-oxopentanoate)]	not detectable						
